From patent US9216169B2, “Pharmaceutical composition comprising candesartan or ester thereof and chlortalidone, and use thereof” (TIANJIN INSTITUTE OF PHARMACEUTICAL RESEARCH, priority 2011, dated 2015)

Test system: Spontaneously hypertensive rats (SHR)
Test: SBP of SHR by Tail-Cuff method, first administration and continuous administration for 14 days (Examples 8-12)
Type: in vivo, rat
Conditions: for AUC0-24h: after first administration
Method: Spontaneously hypertensive rats (SHR), male, are provided by Beijing Vital River Laboratory Animal Technology Co., Ltd. The number of animal production license is SCXK (Jing) 2007-0001. Animals are raised in an observation room at the room temperature of 25±2° C. controlled by central air-conditioning system and with artificial lighting of 12 h/day. The animals are raised in separate cages sized 43×27×18 cm with 4 animals for each cage. The rats are free access to water and are fed with block fodder everyday, and the water supply is refreshed once a day. The temperature of the room for measuring the blood pressure is 26±2° C.
The blood pressure is measured by Tail-Cuff method and the hear rate is measured according to the pulse frequency. Animals are pre-trained for the blood pressure measurement for more than 2 weeks so as to adapt to the environment of measurement. Animals are placed in a isothermal bag at 37° C. to be prewarmed for 5 to 10 min for formal measurement. Blood pressures of the rats are measured from tail arteries for 2 to 3 times at rest states, and an average value is taken as each blood pressure measured value. All data are collected and preserved by a computer.
SHRs with systolic blood pressures (SBPs)>190 mmHg are selected for experiment.
Rats are randomly divided into 20 groups according to their blood pressures with each group having 8-10 rats. Animals are fasted overnight and measured for the blood pressure of pre-administration at the day of experiment, and then administered drugs in accordance with the following method:
The single-drug group is intragastrically administered candesartan (Can) or chlorthalidone (Chl), with the dosage of Can of 0.1, 0.2, 0.4 mg/kg respectively and the dosage of Chl of 0.3125, 0.625, 1.25 mg/kg respectively;
According to the clinical single-drug specification, the ratios of Can+Chl are set as follows:
For the ratio of Can:Chl=1:6.25, one dose of 0.1+0.625 mg/kg is set;
For the ratio of Can:Chl=1:3.125, two doses of 0.2+0.625 and 0.4+1.25 mg/kg are set;
For the ratio of Can:Chl=1.28:1, one dose of 0.4+0.3125 mg/kg is set;
For the ratio of Can:Chl=2.56:1, one dose of 0.4+0.15625 mg/kg is set;
The administration volumes are all 5 mL/kg. Rats are continuously administered for 14 days. SBPs are measured 2, 4, 8, 12 and 24 hours after the first administration. On the day of 3, 7, 14 days after administration, the blood pressures are measured before administration and 5 hours after administration. Areas under blood pressure reduction-time curve from 0 to 24 h and from 0 to 14 days (AUC0-24h, AUC0-14d) are calculated.
The calculated results are expressed as mean±standard error ( x±SE); statistical treatment is performed using unpaired t test between groups to compare the significance of the average difference; the interaction between drugs are determined by using factorial analysis of variance, and P<0.05 means the difference has statistical significance.

Compound: NS(=O)(=O)c1cc(C2(O)NC(=O)c3ccccc32)ccc1Cl (stereo not drawn) [Chl, Chlorthalidone]
- AUC0-14d (Chl 0.3125 mg/kg i.g. for 14 days): −125.9 mmHg · d
- AUC0-24h (Chl 0.3125 mg/kg i.g.): −133.1 mmHg · h
- AUC0-14d (Chl 0.625 mg/kg i.g. for 14 days): −134.5 mmHg · d
- AUC0-24h (Chl 0.625 mg/kg i.g.): −190.4 mmHg · h
- AUC0-14d (Chl 1.25 mg/kg i.g. for 14 days): −174.2 mmHg · d
- AUC0-24h (Chl 1.25 mg/kg i.g.): −208.1 mmHg · h
